In patent US7395112B2, “Method and apparatus for treating tumors using low strength electric fields” (priority 2002, dated 2008):

Test system: CT-26 colon carcinoma
Assay: LEF with chemotherapy (LEFCT-EC) in mice bearing 5 mm CT-26 tumors
Format: in vivo, BALB/C mice
Method: Mice: BALB/C male mice were obtained from the breeding colony of Tel-Aviv University, Israel. Mice were used at 8-12 weeks of age. Animal care and experimentation were performed in accordance with the Tel-Aviv University guidelines.
Tumor: Colon carcinoma tumors were grown in mice with CT-26, a metastatic colon carcinoma cell line induced in a BALB/c mouse by chemical carcinogenesis. Cells were cultured in Dulbecco's modified Eagle's medium (DMEM) supplemented with 100 U/ml penicillin, 100 μg/ml streptomycin, 2 mM L-glutamine; 1 mM sodium pyruvate; 1% non-essential amino acid solution; 10% heat-inactivated fetal calf serum. Cultures were maintained at 37° C. in a humidified incubator with a 5% CO2 atmosphere.
Tumor cell inoculation: Mice were inoculated intracutaneously with 10^5 CT-26 cells suspended in 100 μL PBS into the low lateral side of the back. Local tumor growth was determined by measuring three mutually orthogonal tumor diameters with a caliper. The volume of tumor was calculated using the formula: Vol=D1×D2×D3×π/6, where D1, D2, D3 are three mutually orthogonal tumor diameters.
Low-strength electric field stimulation: To subject tumors to LEFs, stainless steel needles were used as electrodes. Tumors 5 mm in diameter (about 65 mm^3) were transfixed by electrode needles, with one cathode in the center of the tumor and three or four peripheral anodes. The electrodes were connected to an electric pulse generator and to an oscilloscope. Pulsed LEFs with a repetition frequency of 500 Hz and a pulse width of 180 μs were applied at 20, 40, 60 and 70 V/cm for a duration 12 min or 20 min. The electric pulses were administered 2-4 min following chemotherapeutic drug administration. Mice were anesthetized 10 min before the procedure.
Chemotherapeutic agents: Bleomycin (Sigma Israel Chemicals Ltd., Israel; Megapharm Ltd., Israel) was kept at a temperature of 2-8° C., and was dissolved in pyrogen-free PBS to a concentration enabling dosages of 50 U/kg body weight prior to use. BCNU was administered at a dosage of 35 mg/kg body weight, and 5-FU (Abic, Israel) was used at a dose of 100 mg/kg body weight.
Anesthesia: Mice were anesthetized using an anesthetic cocktail comprising a dose of imalgen at 100 mg/kg body weight and xylazine hydrochloride at 6.25 mg/kg body weight dissolved in PBS injected intraperitoneally in a volume of 0.25 ml per mouse 10 min prior to LEF treatment.
Statistical analysis: Survival times (Kaplan-Meir test), survival comparisons between groups (Mantel-Cox test), and tumor volume differences between groups were plotted using StatSoft “Statistica” statistical software.
Effect of LEF duration and strength on potentiation of bleomycin for treatment of colon carcinoma: In order to determine the optimal LEFCT-EC/bleomycin therapy for treatment of colon cancer, mice bearing CT-26 tumors were treated with LEFs of 40 V/cm for 12 min, and 20 V/cm for 12 or 20 min with or without administration of bleomycin, and survival was analyzed.

## bleomycin
LEF 40 V/cm 12 min, 20 V/cm 12 or 20 min, all combinations tested
  survival with bleomycin + LEF compared with LEF alone: greatly enhanced
LEFCT-EC: drug + LEF 40 V/cm 12 min, 5 mm tumors
  cure rate: 33%
After 21 days
  tumor size with drug + LEF relative to drug only: less than half the size
Bleomycin intratumoral + LEF 40 V/cm 12 min, after 60 days, unchanged until day 120
  survival rate: 33%
Drug alone, no LEF, intratumoral injection (5-FU intratumoral or intravenous), 5 mm tumors
  time after which half the mice died: about 51 days
